{"source": "BindingDB's records for doi:10.1021/jm801065q", "about": "(Novartis Institutes For Biomedical Research, 2008)", "key": {"[1]": {"assay": "Activity at CXCR4 in rat IR983F cells assessed as inhibition of CXCL12-induced cell migration"}, "[2]": {"assay": "Activity at CXCR4 in human Jurkat T cells assessed as inhibition of CXCL12-induced cell migration"}}}
{"smiles": "C1=C(CS/C(=N\\C2CCCCC2)NC2CCCCC2)N2CCN=C2S1", "note": "[1,3-dicyclohexyl-2-((5,6-dihydroimidazo[2,1-b]thiazol-3-yl)methyl)isothiourea]", "values": [{"measurement": "IC50", "setting": "[1]", "result": 29, "unit": "nM"}, {"measurement": "IC50", "setting": "[2]", "result": 58, "unit": "nM"}]}
